Legend:
Assay in all cases: relative viability (nuclei count vs DMSO), 5 days (fraction); higher = more cells survive
NCI-H441 = test system: NCI-H441
In short: (§1)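 For relative viability, nuclei counts in treated wells were divided by those in vehicle wells. Lung cancer cell lines had been pin-tool dosed in 1536-well plates the day after seeding and cultured for 5 days, then fixed and stained in one step (final 0.05% Triton X-100, 1% formaldehyde, 1 ug/ml Hoechst) and imaged at 4×. Doses were one drug alone or a fixed anchor-drug dose plus five library-drug doses (not always all listed) in √10 steps, and values are duplicate-plate medians.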

LOU-NH91 = test system: LOU-NH91
In short: as §1

NCI-H1437 = test system: NCI-H1437
In short: as §1

NCI-H2085 = test system: NCI-H2085
In short: as §1

NCI-H2009 = test system: NCI-H2009
In short: as §1

HOP-62 = test system: HOP-62
In short: as §1

HCC-78 = test system: HCC-78
In short: as §1

NCI-H1355 = test system: NCI-H1355
In short: as §1

NCI-H322M = test system: NCI-H322M
In short: as §1

ChaGo-K-1 = test system: ChaGo-K-1
In short: as §1

NCI-H2170 = test system: NCI-H2170
In short: as §1

ABC-1 = test system: ABC-1
In short: as §1

NCI-H1755 = test system: NCI-H1755
In short: as §1

NCI-H727 = test system: NCI-H727
In short: as §1

RERF-LC-KJ = test system: RERF-LC-KJ
In short: as §1

NCI-H1792 = test system: NCI-H1792
In short: as §1

UMC-11 = test system: UMC-11
In short: as §1

NCI-H2405 = test system: NCI-H2405
In short: as §1

SK-MES-1 = test system: SK-MES-1
In short: as §1

NCI-H650 = test system: NCI-H650
In short: as §1

NCI-H2023 = test system: NCI-H2023
In short: as §1

NCI-H23 = test system: NCI-H23
In short: as §1

LCLC-97TM1 = test system: LCLC-97TM1
In short: as §1

`O=c1[nH]c2ccccc2n1C1CCN(CCCC(c2ccc(F)cc2)c2ccc(F)cc2)CC1` [Pimozide] + O=C(c1cc(Cc2n[nH]c(=O)c3ccccc23)ccc1F)N1CCN(C(=O)C2CC2)CC1 [Olaparib] (partner 8 µM) gave a relative viability (NCI-H441; first compound 0.08 µM) of 0.641, a relative viability (NCI-H441; first compound 0.253 µM) of 0.593 and a relative viability (NCI-H441; first compound 0.8 µM) of 0.506. It also gave a relative viability (NCI-H441; first compound 2.53 µM) of 0.416, a relative viability (NCI-H441; first compound 8 µM) of 0.57 and a relative viability (LOU-NH91; first compound 0.08 µM) of 0.655. The relative viability (LOU-NH91; first compound 0.253 µM) was 0.911, the relative viability (LOU-NH91; first compound 0.8 µM) was 0.866 and the relative viability (LOU-NH91; first compound 2.53 µM) was 0.962. It also gave a relative viability (LOU-NH91; first compound 8 µM) of 0.971, a relative viability (NCI-H1437; first compound 0.08 µM) of 0.615 and a relative viability (NCI-H1437; first compound 0.253 µM) of 0.616. For the same molecule, the relative viability (NCI-H1437; first compound 0.8 µM) was 0.6, the relative viability (NCI-H1437; first compound 2.53 µM) was 0.573 and the relative viability (NCI-H1437; first compound 8 µM) was 0.463. The relative viability (NCI-H2085; first compound 0.08 µM) was 0.691, the relative viability (NCI-H2085; first compound 0.253 µM) was 0.82 and the relative viability (NCI-H2085; first compound 0.8 µM) was 0.767. For the same molecule, the relative viability (NCI-H2085; first compound 2.53 µM) was 0.783, the relative viability (NCI-H2085; first compound 8 µM) was 0.796 and the relative viability (NCI-H2009; first compound 0.08 µM) was 0.761. For the same molecule, the relative viability (NCI-H2009; first compound 0.253 µM) was 0.649, the relative viability (NCI-H2009; first compound 0.8 µM) was 0.769 and the relative viability (NCI-H2009; first compound 2.53 µM) was 0.683. The relative viability (NCI-H2009; first compound 8 µM) was 0.629, the relative viability (HOP-62; first compound 0.08 µM) was 0.588 and the relative viability (HOP-62; first compound 0.253 µM) was 0.342. It also gave a relative viability (HOP-62; first compound 0.8 µM) of 0.356, a relative viability (HOP-62; first compound 2.53 µM) of 0.39 and a relative viability (HOP-62; first compound 8 µM) of 0.56. It also gave a relative viability (HCC-78; first compound 0.08 µM) of 0.832, a relative viability (HCC-78; first compound 0.8 µM) of 0.787 and a relative viability (HCC-78; first compound 2.53 µM) of 0.709. The relative viability (HCC-78; first compound 8 µM) was 0.749, the relative viability (NCI-H1355; first compound 0.08 µM) was 0.717 and the relative viability (NCI-H1355; first compound 0.253 µM) was 0.677. For the same molecule, the relative viability (NCI-H1355; first compound 0.8 µM) was 0.675, the relative viability (NCI-H1355; first compound 2.53 µM) was 0.758 and the relative viability (NCI-H1355; first compound 8 µM) was 0.689. For the same molecule, the relative viability (NCI-H322M; first compound 0.08 µM) was 0.76, the relative viability (NCI-H322M; first compound 0.253 µM) was 0.732 and the relative viability (NCI-H322M; first compound 0.8 µM) was 0.684. It also gave a relative viability (NCI-H322M; first compound 2.53 µM) of 0.833, a relative viability (NCI-H322M; first compound 8 µM) of 0.795 and a relative viability (ChaGo-K-1; first compound 0.08 µM) of 0.402. For the same molecule, the relative viability (ChaGo-K-1; first compound 0.253 µM) was 0.365, the relative viability (ChaGo-K-1; first compound 0.8 µM) was 0.433 and the relative viability (ChaGo-K-1; first compound 2.53 µM) was 0.467. For the same molecule, the relative viability (ChaGo-K-1; first compound 8 µM) was 0.413, the relative viability (NCI-H2170; first compound 0.08 µM) was 0.592 and the relative viability (NCI-H2170; first compound 0.253 µM) was 0.554. It also gave a relative viability (NCI-H2170; first compound 0.8 µM) of 0.608, a relative viability (NCI-H2170; first compound 2.53 µM) of 0.593 and a relative viability (NCI-H2170; first compound 8 µM) of 0.543. The relative viability (ABC-1; first compound 0.08 µM) was 0.782, the relative viability (ABC-1; first compound 0.253 µM) was 0.975 and the relative viability (ABC-1; first compound 0.8 µM) was 1.21. For the same molecule, the relative viability (ABC-1; first compound 2.53 µM) was 0.618, the relative viability (ABC-1; first compound 8 µM) was 0.477 and the relative viability (NCI-H1755; first compound 0.08 µM) was 0.879. It also gave a relative viability (NCI-H1755; first compound 0.253 µM) of 0.842, a relative viability (NCI-H1755; first compound 0.8 µM) of 0.845 and a relative viability (NCI-H1755; first compound 2.53 µM) of 0.825. It also gave a relative viability (NCI-H1755; first compound 8 µM) of 0.776, a relative viability (NCI-H727; first compound 0.08 µM) of 0.731 and a relative viability (NCI-H727; first compound 0.253 µM) of 0.674. The relative viability (NCI-H727; first compound 0.8 µM) was 0.725, the relative viability (NCI-H727; first compound 2.53 µM) was 0.549 and the relative viability (NCI-H727; first compound 8 µM) was 0.739. The relative viability (RERF-LC-KJ; first compound 0.08 µM) was 0.873, the relative viability (RERF-LC-KJ; first compound 0.253 µM) was 0.823 and the relative viability (RERF-LC-KJ; first compound 0.8 µM) was 0.838. The relative viability (RERF-LC-KJ; first compound 2.53 µM) was 0.659, the relative viability (RERF-LC-KJ; first compound 8 µM) was 0.648 and the relative viability (NCI-H1792; first compound 0.08 µM) was 0.298. It also gave a relative viability (NCI-H1792; first compound 0.253 µM) of 0.452, a relative viability (NCI-H1792; first compound 0.8 µM) of 0.452 and a relative viability (NCI-H1792; first compound 2.53 µM) of 0.406. For the same molecule, the relative viability (NCI-H1792; first compound 8 µM) was 0.375, the relative viability (UMC-11; first compound 0.08 µM) was 0.394 and the relative viability (UMC-11; first compound 0.253 µM) was 0.356. It also gave a relative viability (UMC-11; first compound 0.8 µM) of 0.417, a relative viability (UMC-11; first compound 2.53 µM) of 0.371 and a relative viability (UMC-11; first compound 8 µM) of 0.466. For the same molecule, the relative viability (NCI-H2405; first compound 0.08 µM) was 0.833, the relative viability (NCI-H2405; first compound 0.253 µM) was 0.826 and the relative viability (NCI-H2405; first compound 0.8 µM) was 0.822. It also gave a relative viability (NCI-H2405; first compound 2.53 µM) of 0.722, a relative viability (NCI-H2405; first compound 8 µM) of 0.693 and a relative viability (SK-MES-1; first compound 0.08 µM) of 0.715. The relative viability (SK-MES-1; first compound 0.253 µM) was 0.686, the relative viability (SK-MES-1; first compound 0.8 µM) was 0.749 and the relative viability (SK-MES-1; first compound 2.53 µM) was 0.697. It also gave a relative viability (SK-MES-1; first compound 8 µM) of 0.619, a relative viability (NCI-H650; first compound 0.08 µM) of 0.409 and a relative viability (NCI-H650; first compound 0.253 µM) of 0.333. For the same molecule, the relative viability (NCI-H650; first compound 0.8 µM) was 0.475, the relative viability (NCI-H650; first compound 2.53 µM) was 0.404 and the relative viability (NCI-H650; first compound 8 µM) was 0.408. It also gave a relative viability (NCI-H2023; first compound 0.08 µM) of 0.481, a relative viability (NCI-H2023; first compound 0.253 µM) of 0.47 and a relative viability (NCI-H2023; first compound 0.8 µM) of 0.444. The relative viability (NCI-H2023; first compound 2.53 µM) was 0.351, the relative viability (NCI-H2023; first compound 8 µM) was 0.348 and the relative viability (NCI-H23; first compound 0.08 µM) was 0.293. For the same molecule, the relative viability (NCI-H23; first compound 0.253 µM) was 0.326, the relative viability (NCI-H23; first compound 0.8 µM) was 0.325 and the relative viability (NCI-H23; first compound 2.53 µM) was 0.285. The relative viability (NCI-H23; first compound 8 µM) was 0.275, the relative viability (LCLC-97TM1; first compound 0.08 µM) was 0.387 and the relative viability (LCLC-97TM1; first compound 0.253 µM) was 0.314. It also gave a relative viability (LCLC-97TM1; first compound 0.8 µM) of 0.404, a relative viability (LCLC-97TM1; first compound 2.53 µM) of 0.222 and a relative viability (LCLC-97TM1; first compound 8 µM) of 0.269.
